Legend:
[1] = test system: adult houseflies (Musca domestica); assay: Musca domestica test (MUSCDO); format: in vivo; settings: application rate 100 ppm; after 2 days
Procedure, shortened: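 Compound dissolved in DMSO and diluted with water to the test concentration, applied with sugar solution on a sponge; 10 adult houseflies per vessel. Mortality scored after 2 days as % kill (100% all dead, 0% none).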

[2] = test system: engorged adult female cattle ticks (Boophilus microplus); assay: Boophilus microplus injection test (BOOPMI Inj); format: in vivo; settings: application rate 20 μg/animal; injection into abdomen; assessed after 7 days
Procedure, shortened: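 DMSO solution of compound (1 μl) injected into the abdomen of 5 engorged adult female ticks, which are then held in a climate-controlled room. After 7 days, efficacy is scored from laying of fertile eggs, with unclear eggs kept until larval hatch (~42 days); 100% means no fertile eggs, 0% all fertile.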

[3] = test system: adult castor bean ticks (Ixodes ricinus); assay: Ixodes ricinus in vitro contact test with adult castor bean ticks (T3); settings: after 48 h
Procedure: T3. Ixodes ricinus-in vitro Contact Tests with Adult Castor Bean Ticks
For the coating of the test tubes, initially 9 mg of active compound are dissolved in 1 ml of acetone p.a. and then diluted with acetone p.a. to the desired concentration. By turning and rocking on an orbital shaker (2 h of rocking rotation at 30 rpm), 250 μl of the solution are distributed homogeneously on the internal walls and the floor of a 25 ml test tube. At 900 ppm active compound solution and 44.7 cm^2 internal surface, an area dose of 5 μg/cm^2 is achieved for homogeneous distribution.
After evaporation of the solvent, the tubes are populated with 5-10 adult castor bean ticks (Ixodes ricinus), sealed with a perforated plastic lid and incubated in a horizontal position in the dark at 22° C. and 90% humidity in a climate-controlled cabinet. After 48 h, the efficacy is determined. To this end, the ticks are knocked to the floor of the tube and incubated on a hotplate at 45-50° C. for at most 5 min. Ticks which remain motionless on the floor or move in an uncoordinated manner such that they are not able to deliberately avoid the heat by climbing upwards are considered to be dead or moribund.
An efficacy of 100% means that all ticks were dead or moribund. 0% efficacy means that none of the ticks had been damaged.

[4] = test system: larvae of the mustard beetle (Phaedon cochleariae); assay: Phaedon cochleariae spray test (PHAECO); format: in vivo; settings: Chinese cabbage leaf discs, after 7 days
Procedure, shortened: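 Compound dissolved in acetone/dimethylformamide with alkylaryl polyglycol ether emulsifier, made up in water containing 1000 ppm emulsifier, then diluted to test concentrations and sprayed against mustard beetle larvae. Efficacy (% larvae killed) scored after 7 days.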

[5] = test system: adult cat fleas (Ctenocephalides felis); assay: Ctenocephalides felis oral test (CTECFE); format: in vivo; settings: application rate 100 ppm in citrated cattle blood; after 2 days
Procedure, shortened: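 About 20 unfed adult cat fleas fed through parafilm membrane on citrated cattle blood containing compound (DMSO stock diluted in blood to test concentration). Kill % scored after 2 days (100% = all fleas dead).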

[6] = test system: caterpillars of the armyworm (Spodoptera frugiperda); assay: Spodoptera frugiperda spray test (SPODFR); format: in vivo; settings: maize leaf discs, after 7 days
Procedure, shortened: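 Maize leaf discs sprayed with compound in acetone/DMF with alkylaryl polyglycol ether emulsifier (1000 ppm) in water, dried, then infested with armyworm caterpillars. Mortality (%) scored after 7 days; 100% = all caterpillars killed, 0% = none killed.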

[7] = test system: bont tick nymphs (Amblyomma hebraeum); settings: after 48 h
[8] = test system: cattle ticks (Boophilus microplus) Parkhurst strain, SP-resistant; assay: Boophilus microplus dip test (BOOPMI Dip); format: in vivo; settings: application rate 100 ppm, assessed after 7 days
Procedure, shortened: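 Adult engorged female SP-resistant Parkhurst ticks (8–10) were fully immersed in compound diluted in water from a DMSO solution, then kept in a climate-controlled room. After 7 days, fertile egg-laying was scored, with larval hatching checked at about 42 days; 100% efficacy means no fertile eggs.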

[9] = logP determination by HPLC on a reversed-phase column (C18), EEC Directive 79/831 Annex V.A8; format: physicochemical
Procedure, shortened: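 Retention on a C18 reversed-phase column (Zorbax Eclipse Plus, 1.8 micron) was used, eluting with acetonitrile/water, each containing formic acid. The gradient ran from 10% to 95% acetonitrile over 4.25 min, then held 1.25 min, at 55° C and 2.0 ml/min, with MS detection.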

[10] = HPLC on reversed-phase column (C18), acetonitrile/water with formic acid, EEC Directive 79/831 Annex V.A8

| Structure (SMILES) | efficacy (kill in %) [1] [%] | efficacy (laying of fertile eggs) [2] [%] | efficacy (dead or moribund ticks) ([3]; application rate 1 μg/cm^2) [%] | efficacy (dead or moribund ticks) ([3]; application rate 5 μg/cm^2) [%] | efficacy in % ([4]; application rate 500 g/ha) [%] | efficacy (kill in %) [5] [%] | efficacy in % ([6]; application rate 500 g/ha) [%] | efficacy (dead or moribund ticks) [7] [%] | efficacy (laying of fertile eggs) [8] [%] | logP [9, 10] | efficacy in % ([4]; application rate 100 g/ha) [%] | efficacy in % ([6]; application rate 100 g/ha) [%] | logP ([9]; HPLC, reversed-phase C18, acetonitrile (0.1% formic acid)/water (0.09% formic acid) gradient) |
| --- | --- | --- | --- | --- | --- | --- | --- | --- | --- | --- | --- | --- | --- |
| Cn1nc(C(F)(F)C(F)(F)F)c(C(F)(F)F)c1-n1cc(-c2cc(Cl)c(Cl)c(C(=O)NC3CC3)c2)cn1 [Ic-94] | 100 | 100 | 100 | 100 | 100 | 100 | 100 | 100 | 100 | – | – | – | – |
| Cn1nc(C(F)(F)C(F)(F)F)c(C(F)(F)F)c1-n1cc(-c2cc(F)c(Cl)c(C(=O)NC3(C#N)CC3)c2)cn1 [Ic-27] | 100 | 100 | – | – | 100 | 100 | 100 | – | 100 | 3.87 | – | – | – |
| CN(C(=O)c1cc(-c2cnn(-c3c(C(F)(F)F)c(C(F)(F)C(F)(F)F)nn3C)c2)ccc1Cl)C1(C#N)CC1 [Ic-96] | 100 | 100 | – | – | – | 100 | – | – | 100 | 4.1 | 100 | 100 | – |
| Cn1nc(C(F)(F)C(F)(F)F)c(C(F)(F)F)c1-n1cc(-c2ccc(Cl)c(C(=O)NC3CC3F)c2)cn1 (stereo not shown) [Ic-81] | 100 | 100 | 100 | 100 | – | 100 | – | 100 | 100 | 3.8 | 100 | 100 | – |
| Cn1nc(C(F)(F)C(F)(F)F)c(C(F)(F)F)c1-n1ccc(-c2ccc(Cl)c(C(=O)NC3(C#N)CC3)c2)c1 [Ia-1] | 80 | 100 | 100 | 100 | – | 100 | – | 100 | 100 | – | 100 | 100 | 3.99 |
| CCn1nc(C(F)(F)C(F)(F)F)c(C(F)(F)F)c1-n1cc(-c2ccc(Cl)c(C(=O)NC3CC3)c2)cn1 [Ic-16] | 100 | 100 | 100 | 100 | – | 100 | – | 100 | 100 | 4.14 | 100 | 100 | – |
| Cn1nc(C(F)(F)C(F)(F)F)c(C(F)(F)F)c1-n1cc(-c2cc(F)c(Cl)c(C(=O)NC3CC3)c2)cn1 [Ic-24] | 100 | 100 | – | – | 100 | 100 | 100 | – | 100 | 3.90 | – | – | – |
| Cc1ncc(-c2cnn(-c3c(C(F)(F)F)c(C(F)(F)C(F)(F)F)nn3C)c2)cc1C(=O)NC1CC1 [Ic-84] | 100 | 100 | 100 | 100 | 100 | 100 | 100 | 100 | 100 | – | – | – | – |
| Cn1nc(C(F)(F)C(F)(F)F)c(C(F)(F)F)c1-n1cc(-c2ccc(Cl)c(C(=O)NCC(F)F)c2)cn1 [Ic-78] | 100 | 100 | – | – | – | 100 | – | – | 100 | 3.86 | 100 | 100 | – |

Reference: patent publication US9487489B2, “Halogen-substituted pyrazole derivatives as pest-control agents” (BAYER CROPSCIENCE AKTIENGESELLSCHAFT, priority 2013, dated 2016)
